Results on three compounds are retold here after paper PMC6100415, “Hepatic Metabolism of Sakuranetin and Its Modulating Effects on Cytochrome P450s and UDP-Glucuronosyltransferases” (Molecules : A Journal of Synthetic Chemistry and Natural …, 2018).

Where two headings read alike, the source gives them in different places.

Holding throughout (assay type): in vitro ADME
The target of data set [1] is CYP3A4 (Homo sapiens, UniProt P08684). The experiment in a line: CYP inhibition in human liver microsomes, testosterone 6β-hydroxylation (TSTHY). The following applies: pH 7.4, probe testosterone (6β-hydroxylation, TSTHY). An excerpt: (§1) The DAD was set at 280 nm.
CYP3A4, sequence (P08684 whole entry): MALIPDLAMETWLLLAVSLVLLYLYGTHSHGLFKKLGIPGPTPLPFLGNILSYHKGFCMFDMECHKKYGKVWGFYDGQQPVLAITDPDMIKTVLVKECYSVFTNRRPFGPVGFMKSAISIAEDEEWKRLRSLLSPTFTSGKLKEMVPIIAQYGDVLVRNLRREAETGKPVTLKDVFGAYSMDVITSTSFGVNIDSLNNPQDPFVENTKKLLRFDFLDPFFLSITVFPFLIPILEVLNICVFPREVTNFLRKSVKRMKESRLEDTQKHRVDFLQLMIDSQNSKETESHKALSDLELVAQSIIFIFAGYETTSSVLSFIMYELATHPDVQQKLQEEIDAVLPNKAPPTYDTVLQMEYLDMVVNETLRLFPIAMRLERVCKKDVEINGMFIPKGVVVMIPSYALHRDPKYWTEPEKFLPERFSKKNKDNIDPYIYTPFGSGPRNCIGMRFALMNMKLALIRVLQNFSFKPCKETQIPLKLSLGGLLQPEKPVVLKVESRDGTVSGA
(Microsomes from liver hold many membrane-bound enzymes, among them those of drug oxidation.)

In data set [2] the target is T1, UGT1A9 (Homo sapiens, UniProt O60656).
T1 construct: The typical incubation mixture contained human liver microsomes (0.5 mg/mL) along with SKN (10 μM); tissue BD Gentest; host or cells: human liver microsomes
T1 sequence (O60656 26-530): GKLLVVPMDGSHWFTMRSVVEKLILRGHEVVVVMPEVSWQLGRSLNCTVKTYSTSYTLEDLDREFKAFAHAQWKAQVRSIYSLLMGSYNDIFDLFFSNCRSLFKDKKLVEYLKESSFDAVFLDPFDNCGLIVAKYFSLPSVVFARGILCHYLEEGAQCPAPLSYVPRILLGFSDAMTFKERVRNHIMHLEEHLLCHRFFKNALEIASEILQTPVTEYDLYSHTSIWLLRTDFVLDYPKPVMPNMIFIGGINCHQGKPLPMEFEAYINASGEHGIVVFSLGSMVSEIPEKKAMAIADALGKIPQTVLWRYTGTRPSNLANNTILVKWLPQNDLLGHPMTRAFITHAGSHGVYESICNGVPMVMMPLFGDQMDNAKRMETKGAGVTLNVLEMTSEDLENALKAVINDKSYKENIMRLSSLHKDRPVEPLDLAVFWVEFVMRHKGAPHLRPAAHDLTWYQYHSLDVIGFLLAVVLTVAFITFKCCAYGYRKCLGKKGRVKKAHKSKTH
Kind of data set: UGT inhibition in human liver microsomes, mycophenolic acid O-glucuronidation (MPAG). The following applies: for inhibition at 10 μM: human, pH 7.4, probe mycophenolic acid (200 μM), O-glucuronidation (MPAG), UGT1A9, MPAG. The method, then: (§2) The formation of a glucuronide conjugate from an isozyme-specific substrate (200 μM, Table 5) was examined to determine UGT activity levels in human liver microsomes. The typical incubation mixture contained human liver microsomes (0.5 mg/mL) along with SKN (10 μM), and MgCl2 (10 mM) in 50 mM Tris-HCl buffer (pH 7.4). The metabolic reaction was initiated by adding UPDGA (2 mM) and stopped by adding an equal volume of ice-cold methanol. […] The conditions used for the operation and analysis of the HPLC-DAD and LC-ESI-MS are provided in the Supplementary Materials and Table S3.
(§3) The solvent flow rate was set at 0.2 mL/min, and the column temperature was set at 35 °C. The LTQ instrument was operated in negative ion electron spray mode at an ion spray voltage of −4.2 kV and a source temperature of 275 °C. The sheath gas flow rate was 35 arb, and the aux gas flow rate was 5 arb. The MS conditions used to detect glucuronides via selected ion monitoring scan mode are summarized in Supplementary Materials Table S3.

In data set [3] the target is CYP2D6 (Homo sapiens, UniProt P10635). The experiment in a line: CYP inhibition in human liver microsomes, dextromethorphan O-demethylation (DEXOD). The conditions noted are these: pH 7.4, probe dextromethorphan (O-demethylation, DEXOD).
CYP2D6, sequence (P10635 whole entry): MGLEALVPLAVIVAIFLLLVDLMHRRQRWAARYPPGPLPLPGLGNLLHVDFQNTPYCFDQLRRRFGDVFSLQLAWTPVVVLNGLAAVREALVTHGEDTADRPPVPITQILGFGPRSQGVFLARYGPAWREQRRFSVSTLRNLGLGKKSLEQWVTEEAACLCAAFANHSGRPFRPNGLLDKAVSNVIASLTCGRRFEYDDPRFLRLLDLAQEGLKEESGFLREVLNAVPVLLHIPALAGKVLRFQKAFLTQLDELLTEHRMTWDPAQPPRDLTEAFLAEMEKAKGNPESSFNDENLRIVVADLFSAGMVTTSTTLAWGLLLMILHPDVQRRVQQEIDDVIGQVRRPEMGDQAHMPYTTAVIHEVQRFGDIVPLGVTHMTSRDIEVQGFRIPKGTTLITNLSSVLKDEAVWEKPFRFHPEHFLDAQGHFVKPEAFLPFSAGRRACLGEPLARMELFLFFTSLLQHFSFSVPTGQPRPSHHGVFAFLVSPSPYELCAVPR
Excerpt: as §1

In data set [4] the target is T2, CYP2B6 (Homo sapiens, UniProt P20813).
T2 sequence (P20813 1-491): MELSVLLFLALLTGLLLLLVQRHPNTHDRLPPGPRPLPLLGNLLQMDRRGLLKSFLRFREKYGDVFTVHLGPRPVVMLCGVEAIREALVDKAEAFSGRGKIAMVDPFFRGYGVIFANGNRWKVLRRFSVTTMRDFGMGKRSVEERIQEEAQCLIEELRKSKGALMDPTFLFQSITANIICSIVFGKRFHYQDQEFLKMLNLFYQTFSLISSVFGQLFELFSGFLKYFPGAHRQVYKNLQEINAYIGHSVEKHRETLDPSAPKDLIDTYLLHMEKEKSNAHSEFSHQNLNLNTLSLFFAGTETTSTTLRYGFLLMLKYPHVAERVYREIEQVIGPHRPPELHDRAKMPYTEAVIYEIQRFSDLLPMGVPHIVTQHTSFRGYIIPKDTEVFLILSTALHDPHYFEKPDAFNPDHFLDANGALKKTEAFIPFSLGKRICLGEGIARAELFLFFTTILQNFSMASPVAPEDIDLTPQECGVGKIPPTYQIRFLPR
Kind of data set: CYP inhibition in human liver microsomes, bupropion hydroxylation (BPHY). The conditions noted are these: pH 7.4, probe bupropion (hydroxylation, BPHY).
Excerpt: as §1

Data set [5] addresses T3, UGT1A3 (Homo sapiens, UniProt P35503).
T3 construct: The typical incubation mixture contained human liver microsomes (0.5 mg/mL) along with SKN (10 μM); tissue BD Gentest; host or cells: human liver microsomes
T3 sequence (P35503 29-534): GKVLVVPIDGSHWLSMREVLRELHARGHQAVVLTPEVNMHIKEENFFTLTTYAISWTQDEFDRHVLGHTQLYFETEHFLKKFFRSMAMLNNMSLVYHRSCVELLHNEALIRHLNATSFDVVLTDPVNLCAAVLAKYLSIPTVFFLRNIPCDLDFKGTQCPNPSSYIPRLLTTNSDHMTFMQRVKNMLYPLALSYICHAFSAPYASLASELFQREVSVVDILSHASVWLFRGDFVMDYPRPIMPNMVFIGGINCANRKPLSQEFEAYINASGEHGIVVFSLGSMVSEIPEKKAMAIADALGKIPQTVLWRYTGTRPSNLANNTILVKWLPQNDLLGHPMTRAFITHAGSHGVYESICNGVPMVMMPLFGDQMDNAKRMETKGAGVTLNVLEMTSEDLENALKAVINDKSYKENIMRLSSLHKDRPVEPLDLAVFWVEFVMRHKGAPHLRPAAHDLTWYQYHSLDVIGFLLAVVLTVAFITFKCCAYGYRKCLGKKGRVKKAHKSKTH
Kind of data set: UGT inhibition in human liver microsomes, chenodeoxycholic acid 24-glucuronidation (CDCAG). The conditions noted are these: pH 7.4, probe chenodeoxycholic acid (200 μM). The method, then:
as §2, §3

[6] abbreviates: liver microsomes, 200 μM, SKN 10 μM, 15 min pre-incubation, read-out: % Inhibition in Pre-Incubation.
Where [7] appears, read: liver microsomes, 200 μM, SKN 10 μM, human liver microsomes, read-out: % Inhibition in Co-Incubation.
[8] abbreviates: human liver microsomes, 200 µM, inhibitor 10 M [sic], human liver microsomes 0.5 mg/mL, read-out: Inhibition (%).
Where [9] appears, read: human liver microsomes, inhibitor 10 µM, human liver microsomes 0.5 mg/mL, read-out: Inhibition (%).
Setting [10] is: inhibitor 10 µM, human liver microsomes 0.5 mg/mL, read-out: Inhibition (%).

On to `COc1cc(O)c2c(c1)OC(c1ccc(O)cc1)CC2=O` (racemic) [SKN, (+/−) 7-O-methylnaringenin], for which the inhibition (as a rule, the drop in the measured response relative to a control, in per cent) at 60 min, 10 µM in data set [1] (setting [6]) was 12.6 ± 2.8%; in data set [1] (setting [7]), 15.6 ± 0.6%; in data set [3] (setting [6]), 3.5 ± 2.6%; in data set [3] (setting [7]), -0.6 ± 3.1%; in data set [4] (setting [6]) it was 0.8 ± 0.2%; in data set [4] (setting [7]), -0.6 ± 0.9%. In data set [2] (SKN, human liver microsomes), the “fold higher inhibition of UGT1A9 in the pre-incubation sample than in the co-incubation sample” value worked out at 1.5 fold. Moreover, the inhibition at 10 μM was 3.5 ± 2.6% in data set [2] (human liver microsomes, SKN 10 μM, 15 min pre-incubation, read-out: % Inhibition in Pre-Incubation); -0.6 ± 3.1% in data set [2] (human liver microsomes, SKN 10 μM, human liver microsomes, read-out: % Inhibition in Co-Incubation); 0.8 ± 0.2% in data set [5] (SKN 10 μM, 15 min pre-incubation, read-out: % Inhibition in Pre-Incubation); -0.6 ± 0.9% in data set [5] (SKN 10 μM, read-out: % Inhibition in Co-Incubation). Besides, the “mode of UGT1A9 inhibition” value in data set [2] (pre-incubation 15 min, 10-fold dilution) is given as “irreversible UGT1A9 inhibitor”.
As to `O=C1C[C@@H](c2ccc(O)cc2)Oc2cc(O)cc(O)c21` [Naringenin], the inhibition at 60 min, 10 µM came to 39.6 ± 2.2% in data set [1] (setting [8]), 11.9 ± 1.4% in data set [3] (setting [8]) and 24 ± 2.2% in data set [4] (setting [8]). The inhibition at 10 μM in data set [2] (setting [9]) came out at 2 ± 2.1%; in data set [5] (setting [10]), 2 ± 0.9%.
Turning to `O=C1C[C@@H](c2ccc(O)c(O)c2)Oc2cc(O)cc(O)c21` [Eriodictyol, 3′-hydroxynaringenin], the inhibition at 60 min, 10 µM in data set [1] (setting [8]) turned out to be 3.2 ± 0.7%; in data set [3] (setting [8]), 5.6 ± 3.6%; in data set [4] (setting [8]), 16.1 ± 0.9%. Moreover, the inhibition at 10 μM in data set [2] (setting [9]) came to 2.9 ± 0.8%; in data set [5] (setting [10]), 15.7 ± 2.9%.
